Several values for one entry are separate records, joined by “and”; a condition that tells them apart may be missing. Equal entries are not always repeated. Where two headings read alike, the source gives them in different places.

This is an account of results in patent US10919889B2, “Chiral heterocyclic compound with hedgehog pathway antagonist activity, method and use thereof” (SUZHOU KINTOR PHARMACEUTICALS, INC., priority 2016, dated 2021).

Assay [1] deals with Hh signaling pathway. The assay can be described thus: NIH3T3-GRE-Luc luciferase reporter assay (primary assay). It counts as cell-based. The source says: NIH3T3 cells (CRL-1658, ATCC) were maintained in DMEM (Gibico) supplemented with 10% FBS (Hyclone). GRE-Luc plasmid was generated by inserting 8×Gli-1 responsive element (GRE) into the multiple cloning site of pGL4.26 vector (Promega). NIH3T3-GRE-Luc reporter cell line was established by hygromycin (Invitrogen) selection after transfected with GRE-Luc luciferase reporter plasmid. Single clones were validated by the induction of luciferase by recombinant sonic hedgehog (sHh) protein or small molecule agonist SAG (ABIN629346). Selected clone was used to monitor the Hh signaling.
The NIH3T3-GRE-Luc cells were maintained in complete culture medium (DMEM with 4 mM L-Gln, 1.5 g/L sodium bicarbonate and 4.5 g/L glucose supplemented with 100 μg/mL hygromycin and 10% FBS). When confluent, the cells were trypsinized and re-suspended in assay medium (0.5% serum-containing DMEM). After 100 µL/well of cells suspension was added to the 96-well-plate (Final cell concentration is 15,000 cells/well), cells were cultured for additional 48 hours before adding the compounds.
Compounds were serially diluted in DMSO and further diluted with assay medium. In an embodiment, 10 nM SAG was added in assay medium as the agonist of Hh signaling. After the compounds and agonist were prepared, the medium was removed carefully. 100 μL of assay medium containing compound and agonist was added to the cell with care. Cell plates were incubated at 37° C. for additional 48 hours.
Following the 48 hours incubation, 40 μL/well of luciferase media (Brigh-Glo, Promega) was added to the cells. The plate was incubated at room temperature for 5 minutes under gentle shaking. Luminescence signal was measured with plate reader (PHERAstar FS, BMG). The potency of compounds was calculated based on the inhibition of luminescence signaling.
NIH3T3 cells (CRL-1658, ATCC) were maintained in DMEM (11965, Gibico) supplemented with 10% FBS (Hyclone). GRE-Luc plasmid was generated by cloning 8×Gli-1 responsive element (GRE) into the MCS of pGL4.26 (Promega). NIH3T3-GRE-Luc reporter cell lines were established by hygromycin (Invitrogen) selection after transfection with GRE-Luc luciferase reporter plasmid. Single clones were validated for the assay quality with N-terminal fragment of recombinant sonic hedgehog protein or small molecule agonist SAG (ABIN629346). Selected clone were used to monitor the Hh signaling.
The NIH3T3-GRE-Luc cells were maintained in complete culture medium (DMEM with 4 mM L-Gln, 1.5 g/L sodium bicarbonate and 4.5 g/L glucose supplemented with 100 ug/ml hygromycin and 10% FBS). When confluent, the cells were trypsinized and resuspended in assay medium (0.5% serum-containing DMEM). After 100 ul/well of cells suspension was added to the 96-well-plate (Final cell concentration is 15,000 cells/well), cells were cultured for additional 48 hours before adding the compounds.
Compounds were serially diluted in DMSO and further diluted with assay medium. In an embodiment, 10 nM SAG was added in assay medium as the agonist of Hh signaling. After the compounds and agonist were prepared, carefully remove medium (Aspirate the medium with pipette instead of vacuum, or else the NIH3T3 cells monolayer will be detached). 100 ul of assay medium containing compound or agonist was added to the cell with care. Cell plates were incubated at 37 degree for additional 48 hours.
Following the 48 hours incubation, 40 ul/well of luciferase media (Brigh-Glo, Promega) was added to the cells. The plate was incubated at room temperature for 5 min under gentle shaking. Luminescence signal was measured with plate reader (PHERAstar FS, BMG). The potency of compounds was calculated basing on the inhibition of luminescence signaling.

Assay [2] concerns Hh signaling pathway. As to conditions: cited from earlier work.
[3] abbreviates: IC50 value of Vismodegib over that of the tested compound in the same assay.
[4] abbreviates: primary assay, Table 5, read-out: SMO IC50.

One may read the IC50 as the concentration that inhibits the measured activity by half. In the case of `Cc1cnc(-c2cc(N3CCc4nc(N5CCC(O)C5)ncc4C3=O)ncc2Cl)c(C)c1` (stereo not drawn) [C], the Ratio in assay [1] (setting [3]) was 0.16. For the same compound, the half-inhibitory concentration (IC50) in assay [1] (setting [4]) is 272 nM.
For the compound `Cc1cnc(-c2cc(N3CCc4nc(N5CCC(O)CC5)ncc4C3=O)ncc2Cl)c(C)c1` [Compound A-97], the “ratio to vismodegib (relative efficacy), WO2014113191A1” value in assay [2] (previous patent) was “about 0.5 fold”; in assay [2] (previous patent, listed as A97), 0.54 fold. The half-maximal inhibitory concentration (IC50) in assay [2] (previous patent, read-out: IC50 of NIH3T3-GRE-Luc, reported in WO2014113191A1) was 84 nM.
With `Cc1cnc(-c2cc(N3CCc4nc(N5CCC(O)CC5)ncc4[C@@H]3C)ncc2Cl)c(C)c1` [Compound B2, (S)-1-(6-(5′-chloro-3,5-dimethyl-[2,4′-bipyridin]-2′-yl)-5-methyl-5,6,7,8-tetrahydropyrido[4,3-d]pyrimidin-2-yl)piperidin-4-ol], in assay [1], the “Hh pathway inhibitory activity (in words)” value is reported as “relatively poor”. For the same compound, the IC50 in assay [1] (48 h, 10 nM SAG as agonist, 48 hours, read-out: Effect IC50 (nM)(GRE reporter assay)) is 17 nM; in assay [1] (setting [4]), 17 nM. Also, the Ratio in assay [1] (IC50 of vismodegib over that of the tested compound in the same assay) and in assay [1] (setting [3]) was 1.1 throughout.
As to `Cc1cnc(-c2cc(N3CCc4nc(NC5CC5)ncc4[C@@H]3C)ncc2Cl)c(C)c1` [Compound B3, (5 S)-6-[5-chloro-4-(3,5-dimethyl-2-pyridyl)-2-pyridyl]-N-cyclopropyl-5-methyl-7,8-dihydro-5H-pyrido[4,3-d]pyrimidin-2-amine], the Ratio in assay [1] (setting [3]) is 3.1. Also, the half-inhibitory concentration (IC50) in assay [1] (setting [4]) came out at 4 nM.
Consider `Cc1cnc(-c2cc(N3CCc4nc(NC5CC5)ncc4[C@H]3C)ncc2Cl)c(C)c1` [Compound B4, (R)-6-(5′-Chloro-3,5-dimethyl-[2,4′-bipyridin]-2′-yl)-N-cyclopropyl-5-methyl-5,6,7,8-tetrahydropyrido[4,3-d]pyrimidin-2-amine], for which the Ratio in assay [1] (setting [3]) was 8.1. The half-maximal inhibitory concentration (IC50) in assay [1] (setting [4]) was 2.2 nM.
Take `CCC(=O)Nc1ncc2c(n1)CCN(c1cc(-c3ncc(C)cc3C)c(Cl)cn1)[C@@H]2C` [Compound B5, (R)—N-(6-(5′-chloro-3,5-dimethyl-[2,4′-bipyridin]-2′-yl)-5-methyl-5,6,7,8-tetrahydropyrido[4,3-d]pyrimidin-2-yl)propionamide]: the Ratio in assay [1] (setting [3]) was determined as 0.35. Also, the IC50 in assay [1] (setting [4]) is 75 nM.
With `Cc1cnc(-c2cc(N3CCc4nc(NC(=O)C(C)(C)C)ncc4[C@H]3C)ncc2Cl)c(C)c1` [Compound B6, (R)—N-(6-(5′-chloro-3,5-dimethyl-[2,4′-bipyridin]-2′-yl)-5-methyl-5,6,7,8-tetrahydropyrido[4,3-d]pyrimidin-2-yl)pivalamide], the Ratio in assay [1] (setting [3]) turned out to be 6.7. In addition, the concentration for half-maximal inhibition (IC50) in assay [1] (setting [4]) was determined as 3.9 nM.
In the case of `Cc1cnc(-c2cc(N3CCc4nc(N5CCC(O)C5)ncc4C3C)ncc2Cl)c(C)c1` (stereo not drawn) [D], in assay [1] (setting [3]), the Ratio is reported as 3.2. The half-inhibitory concentration (IC50) in assay [1] (setting [4]) worked out at 4.2 nM.
In the case of `Cc1cnc(-c2cc(N3CCc4nc(NCC5CC5)ncc4C3C)ncc2Cl)c(C)c1` (stereo not drawn) [E], the Ratio in assay [1] (setting [3]) stood at 1.74. The IC50 in assay [1] (setting [4]) was found to be 7.7 nM.
For `Cc1cnc(-c2cc(N3CCc4nc(NC5CC5)ncc4C3C)ncc2Cl)c(C)c1` (stereo not drawn) [F], the Ratio in assay [1] (setting [3]) was found to be 4.5. Besides, in assay [1] (setting [4]), the half-inhibitory concentration (IC50) came out at 4.4 nM.
As to `CS(=O)(=O)c1ccc(C(=O)Nc2ccc(Cl)c(-c3ccccn3)c2)c(Cl)c1` [vismodegib, reference compound], the IC50 in assay [1] (vismodegib control in the same assay as the test compound of the line, read-out: Effect IC50 (nM)(GRE reporter assay: vismodegib)) was 13.4 nM and 17.9 nM and 19.3 nM; in assay [1] (vismodegib control in the same assay as the test compound of the line, read-out: SMO IC50 (nM) (vismodegib)) it was 26 nM; in assay [2] (reference in the run of A-55 (8.8) and of A-97 (45), read-out: IC50 of reference vismodegib, reported in WO2014113191A1), 8.8 nM and 45 nM.
